Patent US20080280891A1, “Anti-cancer agents and uses thereof” (Locus Pharmaceuticals, Inc., priority 2006, published 2008)

Columns and labels:
Assay type in all cases: cell-based
[1] = system: NCI-H522 non small cell lung cancer cells; assay: Cell cycle assay (Example 164), G2/M block in NCI-H522 cells; conditions: Homo sapiens; for activation at 0.1 µM: 24 h, flow cytometry (PI), Table 4
Description: (§1) The adherent MCF-7 breast cancer cells and NCI-H522 non small cell lung cancer cells were grown and maintained in EMEM cell culture media containing 10% fetal calf serum.
(§2) Cells were allowed to adhere for 24 hrs. After adherence, cell culture media was changed to that containing 0.5% FCS. Thirty minutes post-media change, test compounds were added at a concentration of either 1.0 or 0.1 μM (as specified in the Tables). Twenty-four hours after test agent addition, cells were analyzed for cell cycle status as described below.
(§3) Cell cycle status was analyzed by flow cytometry. Briefly, cells were collected and washed with FACs buffer (Pharmingen) and resuspended and fixed in 1 mL of 80% ethanol for 1 hr. Cells were washed with FACs buffer and resuspended in propidium iodide(PI)/RNase staining buffer (Pharmingen). PI is a fluorescent dye that labels nucleic acids such as DNA. The fluorescence within a cell (in the presence of PI) is proportional to the amount of DNA within a cell. The cell content of DNA is an indicator of status in the cell cycle. […] Cells in the S phase have DNA content that lies between these extremes.
(§4) For testing of cell cycle effects of test agents the percentage of cells within the G1 and G2/M phase were measured.

[2] = system: MCF-7 breast cancer cells; assay: Cell cycle assay (Example 164), G2/M block in MCF-7 cells; conditions: Homo sapiens, MCF7; 0.1 μM, 24 h, flow cytometry (PI), Table 4
Description: as §1, §2, §3, §4

[3] = system: Jurkat T-cell leukemic cells; assay: Cell cycle assay (Example 163), G2/M block in Jurkat cells; conditions: Homo sapiens, Jurkat, 24 h, flow cytometry (PI), Table 2
Description: (§5) MCF-7 breast cancer cells and Jurkat T-cell leukemic cells were grown (and maintained) in EMEM and RPMI media, respectively, containing 10% fetal calf serum.
Test agents were added a concentration of 0.1 μM. Twenty-fours after test agent addition, cells were analyzed for cell cycle status as described below.
as §3, with “indices” for “indicator”
as §4

[4] = system: MCF-7 breast cancer cells; assay: Cell cycle assay (Example 163), G2/M block in MCF-7 cells; conditions: Homo sapiens, MCF7, 24 h, flow cytometry (PI), Table 2
Description: as §5
as §2, with “1 μM. Twenty-fours” for “either 1.0 or 0.1 μM (as specified in the Tables). Twenty-four hours”
as §3, with “indices” for “indicator”
as §4

Compound | activation at 0.1 µM [1] [%] | activation at 0.1 µM [2] [%] | activation at 0.1 µM [3] [%] | activation at 1 µM [4] [%] | IC50 ([1]; H522, footnotes * and ** of Table 4, read-out: IC50 (footnote mark in H522 G2/M Block)) [µM]
CC(=O)Nc1cc(C(=O)c2cc(C)nc(N(C)C)c2)cc(-c2cccc3[nH]ccc23)c1 [N-[3-(2-Dimethylamino-6-methyl-pyridine-4-carbonyl)-5-(1H-indol-4-yl)-phenyl]-acetamide] | ≥ 50 | ≥ 50 | – | – | –
CN(C)c1cc(C(=O)c2ccnc(N(C)C)c2)cc(-c2cccc3[nH]ccc23)c1 [[3-Dimethylamino-5-(1H-indol-4-yl)-phenyl]-(2-dimethylamino-pyridin-4-yl)-methanone] | ≥ 50 | < 50 | – | – | –
COc1cc(C(=O)c2cc(NC(C)=O)cc(-c3cccc4[nH]ccc34)c2)ccn1 [N-[3-(1H-Indol-4-yl)-5-(2-methoxy-pyridine-4-carbonyl)-phenyl]-acetamide] | – | – | ≥ 50 | ≥ 50 | –
CC(=O)Nc1cc(-c2ccc(Cl)nc2)cc(-c2cccc3[nH]ccc23)c1 [N-[3-(6-Chloro-pyridin-3-yl)-5-(1H-indol-4-yl)-phenyl]-acetamide] | ≥ 50 | – | – | – | –
CCC(=O)Nc1cc(C(=O)c2cccnc2)cc(-c2cccc3[nH]ccc23)c1 [N-[3-(1H-Indol-4-yl)-5-(pyridine-3-carbonyl)-phenyl]-propionamide] | – | – | < 50 | ≥ 50 | –
O=C(c1cccnc1)c1cc(O)cc(-n2ccc3cc(F)ccc32)c1 [[3-(5-Fluoro-indol-1-yl)-5-hydroxy-phenyl]-pyridin-3-yl-methanone] | – | – | ≥ 50 | ≥ 50 | –
O=C(c1cccnc1)c1cc(-c2cccc3[nH]ccc23)cc(N2CCCC2=O)c1 [1-[3-(1H-Indol-4-yl)-5-(pyridine-3-carbonyl)-phenyl]-pyrrolidin-2-one] | – | – | < 50 | ≥ 50 | –
Oc1cc(Nc2cccnc2)cc(-c2cccc3c2OCO3)c1 [3-Benzo[1,3]dioxol-4-yl-5-(pyridin-3-ylamino)-phenol] | – | – | ≥ 50 | ≥ 50 | –
Cc1cc(C(=O)c2cc(NS(C)(=O)=O)cc(-c3cccc4[nH]ccc34)c2)cc(Cl)n1 [N-[3-(2-Chloro-6-methyl-pyridine-4-carbonyl)-5-(1H-indol-4-yl)-phenyl]-methanesulfonamide] | – | – | ≥ 50 | ≥ 50 | –
CS(=O)(=O)Nc1cc(C(=O)c2cccnc2)cc(-c2cccc3[nH]c(C#N)cc23)c1 [N-[3-(2-Cyano-1H-indol-4-yl)-5-(pyridine-3-carbonyl)-phenyl]-methanesulfonamide] | – | – | ≥ 50 | ≥ 50 | –
CS(=O)(=O)Nc1cc(C(=O)c2ccnc(Cl)c2)cc(-c2cccc3[nH]ccc23)c1 [N-[3-(2-Chloro-pyridine-4-carbonyl)-5-(1H-indol-4-yl)-phenyl]-methanesulfonamide] | – | – | ≥ 50 | ≥ 50 | –
COC(=O)c1cc(Nc2cccnc2)cc(-c2cccc3[nH]ccc23)c1 [3-(1H-Indol-4-yl)-5-(pyridin-3-ylamino)-benzoic acid methyl ester] | – | – | ≥ 50 | ≥ 50 | –
COC(=O)Nc1cc(Nc2cccnc2)cc(-c2cccc3[nH]ccc23)c1 [[3-(1H-Indol-4-yl)-5-(pyridin-3-ylamino)-phenyl]-carbamic acid methyl ester] | – | – | < 50 | ≥ 50 | –
NC(=O)c1cc(Nc2cnccn2)cc(-c2cccc3[nH]ccc23)c1 [3-(1H-Indol-4-yl)-5-(pyrazin-2-ylamino)-benzamide] | – | – | < 50 | ≥ 50 | –
Oc1cc(Nc2ccccc2)cc(-c2cccc3[nH]ccc23)c1 [3-(1H-Indol-4-yl)-5-phenylamino-phenol] | – | – | ≥ 50 | ≥ 50 | –
CC(=O)Nc1cc(-c2nc3ncccc3o2)cc(-c2cccc3[nH]ccc23)c1 [N-[3-(1H-Indol-4-yl)-5-oxazolo[4,5-b]pyridin-2-yl-phenyl]-acetamide] | – | – | < 50 | ≥ 50 | –
O=C(c1cccnc1)c1cc(-c2cccc3[nH]ccc23)ccc1O [[2-Hydroxy-5-(1H-indol-4-yl)-phenyl]-pyridin-3-yl-methanone] | – | – | ≥ 50 | ≥ 50 | –

Compound | activation at 0.1 µM [1] [%] | activation at 0.1 µM [2] [%] | activation at 0.1 µM [3] [%] | activation at 1 µM [4] [%] | IC50 ([1]; H522, footnotes * and ** of Table 4, read-out: IC50 (footnote mark in H522 G2/M Block)) [µM]
NC(=O)c1ccc(Nc2cc(O)cc(-c3cccc4[nH]ccc34)c2)cn1 [5-[3-Hydroxy-5-(1H-indol-4-yl)-phenylamino]-pyridine-2-carboxylic acid amide] | – | – | ≥ 50 | ≥ 50 | –
O=COCCOCc1ncccc1Nc1cc(O)cc(-c2cccc3[nH]ccc23)c1 [Formic acid 2-{3-[3-hydroxy-5-(1H-indol-4-yl)-phenylamino]-pyridin-2-ylmethoxy}-ethyl ester] | – | – | < 50 | ≥ 50 | –
N#Cc1cc2c(-c3cc(O)cc(Nc4cccnc4)c3)cccc2[nH]1 [4-[3-Hydroxy-5-(pyridin-3-ylamino)-phenyl]-1H-indole-2-carbonitrile] | – | – | ≥ 50 | < 50 | –
COc1ccc(C(=O)c2cc(O)cc(-c3cccc4[nH]ccc34)c2)cn1 [[3-Hydroxy-5-(1H-Indol-4-yl)-phenyl]-(6-methoxy-pyridin-3-yl)-methanone] | – | – | ≥ 50 | ≥ 50 | –
CS(=O)(=O)Nc1cc(Nc2cccnc2)cc(-c2cccc3[nH]ccc23)c1 [N-[3-(1H-Indol-4-yl)-5-(pyridin-3-ylamino)-phenyl]-methanesulfonamide] | – | – | < 50 | ≥ 50 | –
O=C(Nc1cc(C(=O)c2cccnc2)cc(-c2cccc3[nH]ccc23)c1)OCc1ccccc1 [[3-(1H-Indol-4-yl)-5-(pyridine-3-carbonyl)-phenyl]-carbamic acid benzyl ester] | – | – | < 50 | ≥ 50 | –
CC(=O)Nc1cc(C(=O)c2ccncc2)cc(-c2cccc3[nH]ccc23)c1 [N-[3-(1H-Indol-4-yl)-5-(pyridine-4-carbonyl)-phenyl]-acetamide] | – | – | ≥ 50 | ≥ 50 | –
CC(=O)Nc1cc(-c2cccc3[nH]ccc23)cc(S(=O)(=O)c2cccnc2)c1 [N-[3-(1H-Indol-4-yl)-5-(pyridine-3-sulfonyl)-phenyl]-acetamide] | – | – | < 50 | ≥ 50 | –
N#Cc1ccc(Nc2cc(O)cc(-c3cccc4[nH]ccc34)c2)cn1 [5-[3-Hydroxy-5-(1H-indol-4-yl)-phenylamino]-pyridine-2-carbonitrile] | – | – | ≥ 50 | ≥ 50 | –
NC(=O)c1cc(Nc2cccnc2)cc(-c2cccc3[nH]ccc23)c1 [3-(1H-Indol-4-yl)-5-(pyridin-3-ylamino)-benzamide] | – | – | ≥ 50 | ≥ 50 | –
COc1cc(C(=O)c2cc(N)cc(-c3cccc4[nH]ccc34)c2)ccn1 [[3-Amino-5-(1H-indol-4-yl)-phenyl]-(2-methoxy-pyridin-4-yl)-methanone] | – | – | ≥ 50 | ≥ 50 | –
CS(=O)(=O)Nc1cc(C(=O)c2ccncc2)cc(-c2cccc3[nH]ccc23)c1 [N-[3-(1H-Indol-4-yl)-5-(pyridine-4-carbonyl)-phenyl]-methanesulfonamide] | – | – | ≥ 50 | ≥ 50 | –
CC(=O)Nc1cc(-c2ccnc(Cl)c2)cc(-c2cccc3[nH]ccc23)c1 [N-[3-(2-Chloro-pyridin-4-yl)-5-(1H-indol-4-yl)-phenyl]-acetamide] | ≥ 50 | – | – | – | –
CC(=O)Nc1cc(C(=O)c2ccnc(Cl)c2)cc(-c2cccc3[nH]ccc23)c1 [N-[3-(2-Chloro-pyridine-4-carbonyl)-5-(1H-indol-4-yl)-phenyl]-acetamide] | – | – | ≥ 50 | ≥ 50 | –
CC(=O)Nc1cc(Br)cc(C(=O)c2cccnc2)c1 [N-[3-Bromo-5-(pyridine-3-carbonyl)-phenyl]-acetamide] | – | – | ≥ 50 | ≥ 50 | –
CC(=O)Nc1cc(SCc2cccnc2)cc(-c2cccc3[nH]ccc23)c1 [N-[3-(1H-Indol-4-yl)-5-(pyridin-3-ylmethylsulfanyl)-phenyl]-acetamide] | – | – | < 50 | ≥ 50 | –
CCOc1ccc(-c2cc(NC(C)=O)cc(-c3cccc4[nH]ccc34)c2)cn1 [N-[3-(6-Ethoxy-pyridin-3-yl)-5-(1H-indol-4-yl)-phenyl]-acetamide] | < 50 | – | – | – | 0.1 to 1
